The values below come from the NIST ThermoML archive (doi:10.1021/je700297c).

The data set is described as follows: activity coefficient (dimensionless); of the first substance listed, at infinite dilution; xn = mol fraction of the nth substance listed. The settings on record: Liquid, Chromatography, x1 = 0.

± gives the expanded uncertainty stated by the source.

As for `CCCCCCC` [heptane] + C[n+]1ccn(CCCC#N)c1.O=S(=O)([N-]S(=O)(=O)C(F)(F)F)C(F)(F)F, the activity coefficient (303 K) was determined as 134 ± 9.2 and the activity coefficient (323 K) is 126 ± 8.7. As to `CC1CCCCC1` [methylcyclohexane] + CCCCCCCCCCCCCCCCCC(=O)[O-].CCCCn1cc[n+](C)c1, the activity coefficient (323 K) came to 1.3 ± 0.1 and the activity coefficient (333 K) came out at 1.3 ± 0.1. For `CCO` [ethanol] + CCCCCCCCCCCCCCCC(=O)[O-].CCCCn1cc[n+](C)c1, for the setting “333 K”, the activity coefficient stood at 0.4 ± 0.1.

For the compound `C1CCOC1` [tetrahydrofuran] + CCCCCCCCCCCCCCCC(=O)[O-].CCCCn1cc[n+](C)c1, the activity coefficient (333 K) is 0.6 ± 0.1. In the case of `CCCCCCCC` [octane] + C[n+]1ccn(CCCC#N)c1.N#CN=C=[N-], the activity coefficient reads like this: (303 K) 264 ± 18; (323 K) 204 ± 14. Consider `CCCCCC` [hexane] + C[n+]1ccn(CCCC#N)c1.O=S(=O)([N-]S(=O)(=O)C(F)(F)F)C(F)(F)F, for which the activity coefficient was 126 ± 8.6 (303 K) and 113 ± 7.7 (323 K). For the compound `CCCCCCC` [heptane] + CCCCCCCCCCCCCCCC(=O)[O-].CCCCn1cc[n+](C)c1, the activity coefficient (333 K) is 1.4 ± 0.1. As to `C=CCCCC` [hex-1-ene] + CCCCn1cc[n+](C)c1.F[B-](F)(F)F, the activity coefficient reads like this: (298 K) 25.8 ± 1.8; (323 K) 21.8 ± 1.5. Regarding `C1CCCCC1` [cyclohexane] + CCCCCCCC[n+]1ccn(C)c1.F[B-](F)(F)F, the activity coefficient was determined as 5.3 ± 0.4 (298 K) and 3.9 ± 0.3 (323 K). In the case of `CCCCCCC` [heptane] + CCCCCCCCCCCCCCCCCC(=O)[O-].CCCCn1cc[n+](C)c1, the activity coefficient was 1.8 ± 0.1 (323 K) and 1.5 ± 0.1 (333 K). For `c1ccccc1` [benzene] + CCCCCCCCCCCCCCCCCC(=O)[O-].CCCCn1cc[n+](C)c1 the same measures were 0.7 ± 0.1 and 0.7 ± 0.1.

Turning to `CCCCCCCC` [octane] + CCCCn1cc[n+](C)c1.F[B-](F)(F)F, the activity coefficient was 117 ± 8 (298 K) and 95.5 ± 6.5 (323 K). Take `CCCCCCC` [heptane] + CCCC[n+]1ccn(C)c1.O=S(=O)([N-]S(=O)(=O)C(F)(F)F)C(F)(F)F: the activity coefficient (323 K) is 15.5 ± 1.1. As for `Cc1ccccc1` [toluene] + CCCCCCCCCCCCCCCCCC(=O)[O-].CCCCn1cc[n+](C)c1, the activity coefficient is 0.8 ± 0.1 (323 K) and 0.8 ± 0.1 (333 K). Take `C1CCOC1` [tetrahydrofuran] + CCCCCCCC[n+]1ccn(C)c1.F[B-](F)(F)F: the activity coefficient by setting is: (298 K) 0.7 ± 0.1; (323 K) 0.6 ± 0.1. Regarding `CC1CCCCC1` [methylcyclohexane] + CCCCn1cc[n+](C)c1.F[B-](F)(F)F, the activity coefficient came out at 43.7 ± 3 (298 K) and 35.5 ± 2.4 (323 K). `c1ccccc1` [benzene] + CCCCCCCCCCCCCCCC(=O)[O-].CCCCn1cc[n+](C)c1: for the setting “333 K”, the activity coefficient was determined as 0.7 ± 0.1. For the compound `CCCCCC` [hexane] + C[n+]1ccn(CCCC#N)c1.N#CN=C=[N-], the activity coefficient was determined as 213 ± 15 (303 K) and 145 ± 9.9 (323 K). On to `CO` [methanol] + CCCCCCCCCCCCCCCC(=O)[O-].CCCCn1cc[n+](C)c1, for which the activity coefficient (333 K) is 0.3 ± 0.1. With `CCCCCC` [hexane] + CCCCCCCCCCCCCCCC(=O)[O-].CCCCn1cc[n+](C)c1, the activity coefficient (333 K) was found to be 1.3 ± 0.1. For `C=CCCCCCC` [oct-1-ene] + CCCCCCCC[n+]1ccn(C)c1.F[B-](F)(F)F, the activity coefficient was found to be 7.8 ± 0.5 (298 K) and 6.6 ± 0.5 (323 K). On to `CC1CCCCC1` [methylcyclohexane] + C[n+]1ccn(CCCC#N)c1.N#CN=C=[N-], for which the activity coefficient reads like this: (303 K) 118 ± 8.1; (323 K) 84.9 ± 5.8. Take `C1CCOC1` [tetrahydrofuran] + CCCC[n+]1ccn(C)c1.O=S(=O)([N-]S(=O)(=O)C(F)(F)F)C(F)(F)F: where the note is “323 K”, the activity coefficient came out at 0.4 ± 0.1. On to `CCOC(C)=O` [ethyl acetate] + CCCCCCCCCCCCCCCC(=O)[O-].CCCCn1cc[n+](C)c1, for which the activity coefficient (333 K) worked out at 1 ± 0.1. For the compound `C1CCCCC1` [cyclohexane] + CCCC[n+]1ccn(C)c1.O=S(=O)([N-]S(=O)(=O)C(F)(F)F)C(F)(F)F, the activity coefficient (323 K) stood at 6.7 ± 0.5.

Take `c1ccsc1` [thiophene] + C[n+]1ccn(CCCC#N)c1.O=S(=O)([N-]S(=O)(=O)C(F)(F)F)C(F)(F)F: the activity coefficient (303 K) is 1.5 ± 0.1 and the activity coefficient (323 K) turned out to be 1.4 ± 0.1. With `C=CCCCCCC` [oct-1-ene] + CCCCn1cc[n+](C)c1.F[B-](F)(F)F, the activity coefficient reads like this: (298 K) 59.1 ± 4; (323 K) 48.3 ± 3.3. As for `CCCCCCCC` [octane] + CCCCCCCCCCCCCCCC(=O)[O-].CCCCn1cc[n+](C)c1, the activity coefficient (333 K) came out at 1.6 ± 0.1. For `c1ccsc1` [thiophene] + CCCC[n+]1ccn(C)c1.O=S(=O)([N-]S(=O)(=O)C(F)(F)F)C(F)(F)F, the activity coefficient (323 K) was 0.7 ± 0.1. Take `CCOC(C)=O` [ethyl acetate] + C[n+]1ccn(CCCC#N)c1.N#CN=C=[N-]: the activity coefficient runs as follows: (303 K) 2.8 ± 0.2; (323 K) 2.7 ± 0.2. Consider `O` [water] + C[n+]1ccn(CCCC#N)c1.O=S(=O)([N-]S(=O)(=O)C(F)(F)F)C(F)(F)F, for which the activity coefficient (323 K) came out at 1.8 ± 0.1. `CCCCCC` [hexane] + CCCCn1cc[n+](C)c1.F[B-](F)(F)F: the activity coefficient by setting is: (298 K) 65.9 ± 4.5; (323 K) 50.6 ± 3.5. Consider `CC1CCCCC1` [methylcyclohexane] + C[n+]1ccn(CCCC#N)c1.O=S(=O)([N-]S(=O)(=O)C(F)(F)F)C(F)(F)F, for which the activity coefficient reads like this: (303 K) 75.1 ± 5.1; (323 K) 66.2 ± 4.5. For `CCOC(C)=O` [ethyl acetate] + C[n+]1ccn(CCCC#N)c1.O=S(=O)([N-]S(=O)(=O)C(F)(F)F)C(F)(F)F, the activity coefficient was 2.1 ± 0.2 (303 K) and 2.1 ± 0.2 (323 K). Take `c1ccccc1` [benzene] + C[n+]1ccn(CCCC#N)c1.N#CN=C=[N-]: the activity coefficient is, setting by setting: (303 K) 2.3 ± 0.2; (323 K) 2.2 ± 0.2. `c1ccsc1` [thiophene] + CCCCCCCCCCCCCCCC(=O)[O-].CCCCn1cc[n+](C)c1: for the setting “333 K”, the activity coefficient came out at 0.9 ± 0.1. On to `C1CCOC1` [tetrahydrofuran] + CCCCCCCCCCCCCCCCCC(=O)[O-].CCCCn1cc[n+](C)c1, for which the activity coefficient by setting is: (323 K) 0.7 ± 0.1; (333 K) 0.6 ± 0.1. Turning to `C=CCCCC` [hex-1-ene] + CCCC[n+]1ccn(C)c1.O=S(=O)([N-]S(=O)(=O)C(F)(F)F)C(F)(F)F, the activity coefficient (323 K) came to 6 ± 0.4.

Take `C=CCCCC` [hex-1-ene] + C[n+]1ccn(CCCC#N)c1.O=S(=O)([N-]S(=O)(=O)C(F)(F)F)C(F)(F)F: the activity coefficient (303 K) came out at 54.2 ± 3.7 and the activity coefficient (323 K) turned out to be 47.1 ± 3.2. With `CCO` [ethanol] + C[n+]1ccn(CCCC#N)c1.N#CN=C=[N-], the activity coefficient reads like this: (303 K) 0.5 ± 0.1; (323 K) 0.4 ± 0.1.

Consider `C=CCCCC` [hex-1-ene] + CCCCCCCCCCCCCCCCCC(=O)[O-].CCCCn1cc[n+](C)c1, for which the activity coefficient is, setting by setting: (323 K) 1.4 ± 0.1; (333 K) 1.2 ± 0.1. With `CCCCCCC` [heptane] + C[n+]1ccn(CCCC#N)c1.N#CN=C=[N-], the activity coefficient is, setting by setting: (303 K) 231 ± 16; (323 K) 197 ± 14. With `c1ccccc1` [benzene] + CCCC[n+]1ccn(C)c1.O=S(=O)([N-]S(=O)(=O)C(F)(F)F)C(F)(F)F, for the setting “323 K”, the activity coefficient is 0.8 ± 0.1.

`CO` [methanol] + C[n+]1ccn(CCCC#N)c1.N#CN=C=[N-]: the activity coefficient (303 K) was 0.3 ± 0.1 and the activity coefficient (323 K) was determined as 0.3 ± 0.1. `C=CCCCC` [hex-1-ene] + CCCCCCCCCCCCCCCC(=O)[O-].CCCCn1cc[n+](C)c1: the activity coefficient (333 K) was 1.1 ± 0.1. With `Cc1ccccc1` [toluene] + CCCCn1cc[n+](C)c1.F[B-](F)(F)F, the activity coefficient by setting is: (298 K) 2.5 ± 0.2; (323 K) 2.4 ± 0.2. In the case of `CCCCCCCC` [octane] + CCCCCCCC[n+]1ccn(C)c1.F[B-](F)(F)F, the activity coefficient runs as follows: (298 K) 16.1 ± 1.1; (323 K) 11 ± 0.8. As to `C1CCOC1` [tetrahydrofuran] + C[n+]1ccn(CCCC#N)c1.N#CN=C=[N-], the activity coefficient reads like this: (303 K) 1.6 ± 0.1; (323 K) 1.5 ± 0.1. With `CCCCCC` [hexane] + CCCCCCCC[n+]1ccn(C)c1.F[B-](F)(F)F, the activity coefficient is, setting by setting: (298 K) 8.6 ± 0.6; (323 K) 6.7 ± 0.5. For the compound `C1CCCCC1` [cyclohexane] + CCCCn1cc[n+](C)c1.F[B-](F)(F)F, the activity coefficient worked out at 30.7 ± 2.1 (298 K) and 24.7 ± 1.7 (323 K). For the compound `C1CCCCC1` [cyclohexane] + C[n+]1ccn(CCCC#N)c1.O=S(=O)([N-]S(=O)(=O)C(F)(F)F)C(F)(F)F, the activity coefficient is, setting by setting: (303 K) 55.4 ± 3.8; (323 K) 45.9 ± 3.1.

In the case of `C1CCCCC1` [cyclohexane] + C[n+]1ccn(CCCC#N)c1.N#CN=C=[N-], the activity coefficient (303 K) was 81.7 ± 5.6 and the activity coefficient (323 K) is 58.9 ± 4. As to `c1ccsc1` [thiophene] + CCCCCCCC[n+]1ccn(C)c1.F[B-](F)(F)F, the activity coefficient (298 K) turned out to be 0.9 ± 0.1 and the activity coefficient (323 K) is 0.8 ± 0.1.

In the case of `CC1CCCCC1` [methylcyclohexane] + CCCC[n+]1ccn(C)c1.O=S(=O)([N-]S(=O)(=O)C(F)(F)F)C(F)(F)F, the activity coefficient (323 K) was 9.1 ± 0.6. For `CCOC(C)=O` [ethyl acetate] + CCCCCCCCCCCCCCCCCC(=O)[O-].CCCCn1cc[n+](C)c1, the activity coefficient (323 K) stood at 1.1 ± 0.1 and the activity coefficient (333 K) stood at 1.1 ± 0.1.

As to `C1CCOC1` [tetrahydrofuran] + C[n+]1ccn(CCCC#N)c1.O=S(=O)([N-]S(=O)(=O)C(F)(F)F)C(F)(F)F, the activity coefficient worked out at 1.3 ± 0.1 (303 K) and 1.2 ± 0.1 (323 K). Regarding `C1CCCCC1` [cyclohexane] + CCCCCCCCCCCCCCCC(=O)[O-].CCCCn1cc[n+](C)c1, the activity coefficient (333 K) amounted to 0.9 ± 0.1. On to `CO` [methanol] + CCCCn1cc[n+](C)c1.F[B-](F)(F)F, for which the activity coefficient is, setting by setting: (298 K) 0.8 ± 0.1; (323 K) 0.7 ± 0.1. For `CCCCCCC` [heptane] + CCCCn1cc[n+](C)c1.F[B-](F)(F)F the same measures were 83.5 ± 5.7 and 70.3 ± 4.8.
